Here are results for two compounds from the NIST ThermoML archive (doi:10.1021/je700350b).

For series [1] the following is noted: 101.33 kPa, Liquid, Vibrating tube method.
The nature of series [2]: xn = mol fraction of the nth substance listed. As to conditions: x2 = 0; for surface tension liquid-gas: Ring tensiometer; for viscosity: 101.33 kPa, Liquid.

± gives the expanded uncertainty stated by the source.

Broadly, the mass density is the mass of a sample divided by its volume. The term surface tension liquid-gas denotes the work needed to enlarge the surface of a liquid by unit area. As usually defined, the viscosity is the resistance of a fluid to flow.

With `CCN(CC)CCO` [(diethylamino)ethanol], the mass density in series [1] (293.15 K) is 884.14 ± 0.3 kg/m3; in series [1] (298.15 K), 879.5 ± 0.3 kg/m3.
As for `O` [water] + CCN(CC)CCO, the surface tension liquid-gas in series [2] (283.15 K) was found to be 73.74 ± 2.3 mN/m; in series [2] (288.15 K) it was 73.14 ± 2.2 mN/m; in series [2] (293.15 K), 72.59 ± 2.2 mN/m; in series [2] (298.15 K), 71.84 ± 2.2 mN/m; in series [2] (303.15 K) it was 71.2 ± 0.98 mN/m. In addition, the results for the viscosity in series [2] (298.15 K) and in series [2] (303.15 K) were 0.89 ± 0.014 mPa·s and 0.794 ± 0.013 mPa·s, respectively.
